In patent US5066818A, “Photochromic naphthopyran compounds” (PPG Industries, Inc., priority 1990, dated 1991):

Columns and labels:
[1] = Photochromic response on optical bench of naphthopyrans imbibed into polymer test samples; type: physicochemical; details: homopolymer of diethylene glycol bis(allyl carbonate); for Δ OD at SATURATION: 150 watt Xenon lamp, about one sun, twenty minutes exposure; for Bleach Rate T1/2: values in sec.
Protocol: Naphthopyran compounds prepared in the above-described Examples were imbibed by thermal transfer into test samples of a homopolymer of diethylene glycol bis(allyl carbonate) by the following procedure. Each naphthopyran was dissolved into toluene solvent to form a 4% solution of the compound. A piece of No. 4 Whatman filter paper was saturated with the naphthopyran solution and allowed to air dry. The dried filter paper was placed on one side of the polymer test sample, which measured 1/8 inch (0.3 centimeter)×2 inch (5.1 centimeters)×2 inch (5.1 centimeters). A piece of untreated filter paper was placed on the other side of the polymer test sample and the resulting sandwich placed between two plates of flat aluminum metal plates. The entire assembly was then placed in a 155° C. oven for a time sufficient to thermally transfer the naphthopyran into the polymer test sample.
The imbibed test samples were removed from the oven, washed with acetone, and tested for photochromic response rates on an optical bench. The samples were illuminated by a 150 watt Xenon lamp fitted with a copper sulfate bath and neutral density filter at an intensity of about one sun. The optical density at saturation was determined at twenty minutes exposure.

[2] = Photochromic behaviour (coloring, bleaching) stated in words; type: physicochemical; details: for coloring on exposure to ultraviolet light: near ultraviolet; for bleaching / rate of fade in words: room temperature and above, or ambient temperature

SMILES | Δ OD at SATURATION [1] | Bleach Rate T1/2 [1] [min] | coloring on exposure to ultraviolet light [2] | bleaching / rate of fade in words [2]
COc1ccc(C2(c3ccccc3)C=Cc3c(ccc4ccccc34)O2)cc1 (centres unmarked) [Comparative Example 2, 3-phenyl-3(4-methoxyphenyl)-3H-naphtho[2,1-b]pyran] | 0.25 | 0.583 | – | –
FC(F)(F)c1ccc(C2(c3ccccc3)C=Cc3ccc4ccccc4c3O2)cc1 (centres unmarked) [Comparative Example 4, 3-phenyl-3(4-trifluoromethylphenyl)-2H-naphtho[1,2-b]pyran] | 1.63 | – | – | –
COc1ccc(C2(c3ccc(OC)cc3C)C=Cc3c(ccc4ccccc34)O2)cc1 (centres unmarked) [Example 3, 3(2-methyl-4-methoxyphenyl)-3-(4methoxyphenyl)-3H-naphtho-[2,1-b]pyran] | 1.35 | 8.5 | – | –
COc1ccc(C2(c3ccccc3C)C=Cc3c(ccc4ccccc34)O2)cc1 (centres unmarked) [Example 4, 3(2-methylphenyl)-3-(4-methoxyphenyl)-3H-naphtho[2,1-b]pyran] | 2.40 | 10 | – | –
COc1ccc(C2(c3ccccc3)C=Cc3c(ccc4ccccc34)O2)c(OC)c1 (centres unmarked) [Example 5, 3-phenyl-3-(2,4-dimethoxyphenyl)-3H-naphtho[2,1-b]pyran] | 1.42 | 8.5 | – | –
COc1ccc(C2(c3c(F)cccc3F)C=Cc3c(ccc4ccccc34)O2)cc1 (centres unmarked) [Example 6, 3(2,6-difluorophenyl)-3(4-methoxyphenyl)-3H-naphtho[2,1-b]pyran] | 2.23 | – | – | –
C1=CC(c2ccccc2)(c2ccccc2)Oc2c1ccc1ccccc21 [a., 2,2diphenyl-2H naphthol[1,2b]pyran] | 1.37 | – | colors on exposure to near ultraviolet light at room temperature | does not bleach in a reasonable period of time
C1=CC(c2ccccc2)(c2ccccc2)Oc2ccc3ccccc3c21 [compound 1, 3,3-diphenyl-3H-naphtho[2,1-b]pyran] | 0.36 | 0.75 | change color on exposure to the near ultraviolet | bleaches too rapidly for use in an ophthalmic lens
COc1ccc(C2(c3ccc(C)cc3)C=Cc3c(ccc4ccccc34)O2)cc1 (centres unmarked) [compound 3, 3(4-methylphenyl)-3-(4-methoxyphenyl)-3H-naphtho[2,1-b]pyran] | 0.21 | 0.667 | – | –
FC(F)(F)c1cccc(C2(c3cccc(C(F)(F)F)c3)C=Cc3ccc4ccccc4c3O2)c1 [compound 5, 3,3-di(3-trifluoromethyl)phenyl-2H-naphtho [1,2-b]pyran] | 1.07 | – | – | –
